Reference: patent publication US6274715A, “Tricyclic erythromycin derivatives” (priority 1997, dated 2001)
≈ marks a conversion by molar mass, not a printed value.

Columns and labels:
Format in all cases: cell-based
[1] = test system: STAPHYLOCOCCUS AUREUS ATCC 6538P; assay: In vitro antibacterial activity, MIC, BHI agar dilution; details: S. aureus ATCC 6538P, 35-37° C., 20 to 24 hours, unit assumed
[2] = test system: STAPHYLOCOCCUS AUREUS A5177; assay: as above; details: S. aureus A5177, unit assumed
[3] = test system: STAPHYLOCOCCUS AUREUS A-5278; assay: as above; details: S. aureus A-5278, unit assumed
[4] = test system: STAPHYLOCOCCUS AUREUS CMX 642A; assay: as above; details: S. aureus CMX 642A, unit assumed
[5] = test system: STAPHYLOCOCCUS AUREUS NCTC10649M; assay: as above; details: S. aureus NCTC10649M, unit assumed
[6] = test system: STAPHYLOCOCCUS AUREUS CMX 553; assay: as above; details: S. aureus CMX 553, unit assumed
[7] = test system: STAPHYLOCOCCUS AUREUS 1775; assay: as above; details: S. aureus 1775, unit assumed
[8] = test system: STAPHYLOCOCCUS EPIDERMIDIS 3519; details: S. epidermidis 3519; BHI agar; unit assumed
EN[…] ATCC 8043 = assay: In vitro antibacterial activity, MIC, BHI agar dilution; details: E. faecium ATCC 8043, unit assumed
Outline: (§1)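 Agar dilution in BHI: plates inoculated with 1:100 dilutions of organisms (1:10 for Micrococcus and Streptococcus), incubated 20-24 h at 35-37° C, then inspected for the lowest inhibitory concentration against a drug-free growth control.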

M[…] ATCC 4698 = assay: as above; details: M. luteus ATCC 4698, unit assumed
Outline: as §1

M[…] ATCC 9341 = assay: as above; details: M. luteus ATCC 9341, unit assumed
Outline: as §1

STR[…] 508 = assay: as above; details: S. agalactiae CMX 508, unit assumed
Outline: as §1

[9] = test system: STREPTOCOCCUS BOVIS A-5169; assay: as above; details: S. bovis A-5169, unit assumed
[10] = test system: STREPTOCOCCUS PYOGENES EES61; assay: as above; details: S. pyogenes EES61, unit assumed
[11] = test system: STREPTOCOCCUS PYOGENES 930; assay: as above; details: S. pyogenes 930, unit assumed
[12] = test system: STREPTOCOCCUS PYOGENES PIU 2548; assay: as above; details: S. pyogenes PIU 2548, unit assumed
ESCHERICHIA COLI JUHL = details: E. coli JUHL; BHI agar; unit assumed
ESCHERICHIA COLI SS = assay: In vitro antibacterial activity, MIC, BHI agar dilution; details: E. coli SS, unit assumed
ESCHERICHIA COLI DC-2 = assay: as above; details: E. coli DC-2, unit assumed
ESCHERICHIA COLI H560 = assay: as above; details: E. coli H560, unit assumed
ESCHERICHIA COLI KNK 437 = details: E. coli KNK 437; BHI agar; unit assumed
[13] = test system: ENTEROBACTER AEROGENES ATCC 13048; assay: In vitro antibacterial activity, MIC, BHI agar dilution; details: E. aerogenes ATCC 13048, unit assumed
[14] = test system: PROVIDENCIA STUARTII CMX 640; details: P. stuartii CMX 640; BHI agar; unit assumed
[15] = test system: PSEUDOMONAS AERUGINOSA BMH10; assay: In vitro antibacterial activity, MIC, BHI agar dilution; details: P. aeruginosa BMH10, unit assumed
[16] = test system: PSEUDOMONAS AERUGINOSA 5007; assay: as above; details: P. aeruginosa 5007, unit assumed
[17] = test system: PSEUDOMONAS AERUGINOSA K799/WT; assay: as above; details: P. aeruginosa K799/WT, unit assumed
[18] = test system: PSEUDOMONAS AERUGINOSA K799/61; assay: as above; details: P. aeruginosa K799/61, unit assumed
PSEUDOMONAS CEPACIA 296I = assay: as above; details: P. cepacia 296I, unit assumed
[19] = test system: ACINETOBACTER CALCOACETICUS CMX 669; assay: as above; details: A. calcoaceticus CMX 669, unit assumed
[20] = test system: PSEUDOMONAS AERUGINOSA DPHD-5263; assay: as above; details: P. aeruginosa DPHD-5263, unit assumed
[21] = test system: PSEUDOMONAS AERUGINOSA DPHD-2862; assay: as above; details: P. aeruginosa DPHD-2862, unit assumed
CANDIDA ALBICANS CCH 442 = assay: as above; details: C. albicans CCH 442, unit assumed
[22] = test system: MYCOBACTERIUM SMEGMATIS ATCC 114; assay: as above; details: M. smegmatis ATCC 114, unit assumed
[23] = test system: KLEBSIELLA PNEUMONIAE ATCC 8045; assay: as above; details: K. pneumoniae ATCC 8045, unit assumed

CC[C@H]1OC(=O)[C@H](C)C(=O)[C@H](C)[C@@H](O[C@@H]2O[C@H](C)C[C@H](N(C)C)[C@H]2O)[C@](C)(OC)C[C@@H](C)C2=N[C@H](COCc3cccnc3)CN3C(=O)O[C@@]1(C)[C@H]3[C@H]2C [Example 82]
MIC [1]: 0.39 µg/mL (≈ 0.514 µM)
MIC [2]: 0.39 µg/mL (≈ 0.514 µM)
MIC [3]: > 100 µg/mL
MIC [4]: 0.39 µg/mL (≈ 0.514 µM)
MIC [5]: 0.39 µg/mL (≈ 0.514 µM)
MIC [6]: 0.39 µg/mL (≈ 0.514 µM)
MIC [7]: > 100 µg/mL
MIC [8]: 0.39 µg/mL (≈ 0.514 µM)
MIC (EN[…] ATCC 8043): 0.05 µg/mL (≈ 0.0659 µM)
MIC (M[…] ATCC 4698): 0.39 µg/mL (≈ 0.514 µM)
MIC (M[…] ATCC 9341): 0.05 µg/mL (≈ 0.0659 µM)
MIC (STR[…] 508): 0.05 µg/mL (≈ 0.0659 µM)
MIC [9]: 0.05 µg/mL (≈ 0.0659 µM)
MIC [10]: 0.05 µg/mL (≈ 0.0659 µM)
MIC [11]: > 100 µg/mL
MIC [12]: 0.39 µg/mL (≈ 0.514 µM)
MIC (ESCHERICHIA COLI JUHL): > 100 µg/mL
MIC (ESCHERICHIA COLI SS): 0.78 µg/mL (≈ 1.03 µM)
MIC (ESCHERICHIA COLI DC-2): > 100 µg/mL
MIC (ESCHERICHIA COLI H560): > 100 µg/mL
MIC (ESCHERICHIA COLI KNK 437): > 100 µg/mL
MIC [13]: > 100 µg/mL
MIC [14]: > 100 µg/mL
MIC [15]: > 100 µg/mL
MIC [16]: > 100 µg/mL
MIC [17]: > 100 µg/mL
MIC [18]: 3.1 µg/mL (≈ 4.08 µM)
MIC (PSEUDOMONAS CEPACIA 296I): > 100 µg/mL
MIC [19]: > 100 µg/mL
MIC [20]: > 100 µg/mL
MIC [21]: > 100 µg/mL
MIC (CANDIDA ALBICANS CCH 442): > 100 µg/mL
MIC [22]: 3.1 µg/mL (≈ 4.08 µM)

CC[C@H]1OC(=O)[C@H](C)C(=O)[C@H](C)[C@@H](O[C@@H]2O[C@H](C)C[C@H](N(C)C)[C@H]2O)[C@](C)(OC)C[C@@H](C)C2=N[C@H](COCc3ccccc3)CN3C(=O)O[C@@]1(C)[C@H]3[C@H]2C [Example 88]
MIC [1]: 0.39 µg/mL (≈ 0.515 µM)
MIC [2]: 0.2 µg/mL (≈ 0.264 µM)
MIC [3]: > 100 µg/mL
MIC [4]: 0.39 µg/mL (≈ 0.515 µM)
MIC [5]: 0.2 µg/mL (≈ 0.264 µM)
MIC [6]: 0.2 µg/mL (≈ 0.264 µM)
MIC [7]: > 100 µg/mL
MIC [8]: 0.39 µg/mL (≈ 0.515 µM)
MIC (EN[…] ATCC 8043): 0.2 µg/mL (≈ 0.264 µM)
MIC (M[…] ATCC 4698): 0.2 µg/mL (≈ 0.264 µM)
MIC (M[…] ATCC 9341): 0.1 µg/mL (≈ 0.132 µM)
MIC (STR[…] 508): 0.05 µg/mL (≈ 0.066 µM)
MIC [9]: 0.02 µg/mL (≈ 0.0264 µM)
MIC [10]: ≤ 0.005 µg/mL
MIC (ESCHERICHIA COLI JUHL): > 100 µg/mL
MIC (ESCHERICHIA COLI SS): 1.56 µg/mL (≈ 2.06 µM)
MIC (ESCHERICHIA COLI DC-2): > 100 µg/mL
MIC (ESCHERICHIA COLI H560): 100 µg/mL (≈ 132 µM)
MIC (ESCHERICHIA COLI KNK 437): > 100 µg/mL
MIC [13]: > 100 µg/mL
MIC [23]: > 100 µg/mL
MIC [14]: > 100 µg/mL
MIC [15]: > 100 µg/mL
MIC [16]: > 100 µg/mL
MIC [17]: > 100 µg/mL
MIC [18]: 6.2 µg/mL (≈ 8.18 µM)
MIC (PSEUDOMONAS CEPACIA 296I): 100 µg/mL (≈ 132 µM)
MIC [19]: 100 µg/mL (≈ 132 µM)
MIC [20]: > 100 µg/mL
MIC [21]: > 100 µg/mL
MIC (CANDIDA ALBICANS CCH 442): > 100 µg/mL
MIC [22]: 0.39 µg/mL (≈ 0.515 µM)

C#CCN1CC2N=C3[C@H](C)C[C@@](C)(OC)[C@H](O[C@@H]4O[C@H](C)C[C@H](N(C)C)[C@H]4O)[C@@H](C)C(=O)[C@@H](C)C(=O)O[C@H](CC)[C@@]4(C)OC(=O)N(C2C1)[C@@H]4[C@H]3C (stereo partly shown) [Example 117]
MIC [1]: 0.78 µg/mL (≈ 1.09 µM)
MIC [2]: 0.78 µg/mL (≈ 1.09 µM)
MIC [3]: > 100 µg/mL
MIC [4]: 0.78 µg/mL (≈ 1.09 µM)
MIC [5]: 0.78 µg/mL (≈ 1.09 µM)
MIC [6]: 0.78 µg/mL (≈ 1.09 µM)
MIC [7]: > 100 µg/mL
MIC [8]: 1.56 µg/mL (≈ 2.18 µM)
MIC (EN[…] ATCC 8043): 0.2 µg/mL (≈ 0.279 µM)
MIC (M[…] ATCC 4698): 0.39 µg/mL (≈ 0.544 µM)
MIC (M[…] ATCC 9341): 0.2 µg/mL (≈ 0.279 µM)
MIC (STR[…] 508): 0.05 µg/mL (≈ 0.0697 µM)
MIC [9]: 0.05 µg/mL (≈ 0.0697 µM)
MIC [11]: > 100 µg/mL
MIC [12]: 0.78 µg/mL (≈ 1.09 µM)
MIC (ESCHERICHIA COLI JUHL): > 100 µg/mL
MIC (ESCHERICHIA COLI DC-2): > 100 µg/mL
MIC (ESCHERICHIA COLI H560): 50 µg/mL (≈ 69.7 µM)
MIC (ESCHERICHIA COLI KNK 437): > 100 µg/mL
MIC [13]: > 100 µg/mL
MIC [23]: > 100 µg/mL
MIC [14]: > 100 µg/mL
MIC [15]: > 100 µg/mL
MIC [16]: > 100 µg/mL
MIC [17]: > 100 µg/mL
MIC [18]: 3.1 µg/mL (≈ 4.32 µM)
MIC (PSEUDOMONAS CEPACIA 296I): > 100 µg/mL
MIC [19]: > 100 µg/mL
MIC [20]: > 100 µg/mL
MIC [21]: > 100 µg/mL
MIC (CANDIDA ALBICANS CCH 442): > 100 µg/mL
MIC [22]: 3.1 µg/mL (≈ 4.32 µM)
